Reference: patent US9833393B2, “Method and compositions for treating skin” (ELC Management LLC, priority 2015, dated 2017)

System: per1 gene expression
Assay: per1 gene expression activity, per1-luciferase reporter plasmid in transfected keratinocytes
Assay type: cell-based, human
Conditions: NHEK, 16 hours incubation, luminescence
Experimental: Normal human epidermal keratinocytes (NHEK) were diluted in EpiLife Media MEP1500CA with supplement S001-5 added (Gibco, Cascade Biologics, Invitrogen) to form a concentration of 3×10^4 and plated onto a black walled 96 well microtiter plate by adding 100 μl in each well. The plate was incubated for 3 hours at 37° C. in 5% CO2. The media was removed and remaining adhered cells rinsed with EpiLife Media MEP1500CA, supplement free. A plasmid solution was prepared by diluting Tris-EDTA pH 8.0 buffer with plasmid pGL4.11 (DNA 2.0, Carlsbad, Calif.) to form a 1 mg/ml solution. This plasmid contained a per1 gene sequence and a luciferase reporter gene sequence. A transfection mixture was prepared by diluting EpiLife Media MEP1500CA, supplement free, to form a solution with 0.31 μg/ml of plasmid (obtained by adding appropriate amount of plasmid solution prepared above), 1.28% Plus™ Reagent (Catalog No. 11514-015, Invitrogen, Carlsbad, Calif.), and 3.22% Lipofectamine™ Transfection Reagent (Catalog No. 18324-012, Invitrogen, Carlsbad, Calif.). Transfection mixture, […] to each well and the plate incubated for 4 hours at 37° C. in 5% CO2. Then 80 μl of EpiLife Media MEP1500CA with supplement S001-5 was added to the well containing the control (media alone), the transfection mixture control (transfection mixture without any active ingredient). Test wells and transfection control wells. To the test wells 80 μl of test material solution (test material diluted in EpiLife Media MEP1500CA with supplement S001-5) was added. The wells were incubated for 16 hours at 37° C. in 5% CO2. Immediately prior to reading, Bright-Glo™ (Pro-Mega, Madison Wis.) was added to each well plate in the same volume as is currently in the well (e.g. a 1:1 dilution). Luminescence was measured in an LMax™ Microplate Luminometer (Molecular Devices, Sunnyvale, Calif.).

| Molecule | increase in per1 (0.01% concentration) | increase in per1 (0.05% concentration) | increase in per1 (0.1% concentration) | increase in per1 (100 uM concentration) |
| --- | --- | --- | --- | --- |
| alpha bisabolol | 0% | 0% | 0% | – |
| COc1ccc2[nH]cc(CCNC(C)=O)c2c1 [melatonin] | – | – | – | 39.2% |
